From US11607418B2, “Methods of treating SARS-CoV-2 infections” (Tyme, Inc., priority 2020, dated 2023)
Values after ≈ are worked out from the molar mass of the structure shown.

Key:
[1] = test system: SARS-CoV-2 infection / COVID-19; assay: TUDCA capsules taken by persons with or exposed to COVID-19; format: in vivo; conditions: 500 mg capsule twice per day
[2] = test system: SARS-CoV-2 (USA-WA1/2020 strain); assay: SARS-CoV-2 neutralization assay, cytopathic effects (CPE) in Vero E6 cells; format: cell-based; conditions: for Day 2 CPE / Day 4 CPE: 1.25 mg/mL, five replicate wells
[3] = pre-incubation with virus 60 minutes
[4] = simultaneous addition of drug and virus, ~100 TCID50/well

Row | SMILES | Health outcome of member who tested positive for SARS-CoV-2 with COVID-19 symptoms ([1]; Example 2, oral, one rescue squad member) | COVID-19 symptoms despite repeated exposure to COVID-19 patients ([1]; Example 2, twelve rescue squad members, at least 3 months) | Health outcome of subject presenting with COVID-19 symptoms ([1]; Example 3, one subject) | Day 2 CPE [2, 3] | Day 2 CPE [2, 4] | Day 4 CPE [2, 4] | EC50 ([2]; Severe acute respiratory syndrome coronavirus 2, Vero C1008, calculated by the Quest Graph EC50 Calculator, inhibition of SARS-CoV-2 CPE in Vero E6 cells)
1 | CC(CCC(=O)NCCS(=O)(=O)O)C1CCC2C3C(O)CC4CC(O)CCC4(C)C3CCC12C (stereo not shown) [TUDCA, tauroursodeoxycholic acid] | health returned to normal | None of the other twelve members have presented with COVID-19 symptoms | health returned to normal |  |  |  | 
2 | C[C@H](CCC(=O)NCCS(=O)(=O)[O-])[C@H]1CC[C@H]2[C@@H]3[C@@H](O)C[C@@H]4C[C@H](O)CC[C@]4(C)[C@H]3CC[C@]12C.[Na+] [Sodium TUDCA] |  |  |  | no CPE | no CPE | no CPE | 
3 | CC(CCC(=O)NCCS(=O)(=O)O)C1CCC2C3C(O)CC4CC(O)CCC4(C)C3CCC12C (stereo not shown) [TUDCA acid, tauroursodeoxycholic acid] |  |  |  | no CPE | no CPE | no CPE | 980 mg/L (≈ 1960 µM)
